The record followed here is patent US10865216B2, “Tricyclic Gyrase inhibitors” (MERCK SHARP & DOHME CORP., priority 2012, dated 2020).

Values after ≈ are worked out from the molar mass of the structure shown.

The subject of test [1] is S. aureus ATCC 13709. Briefly: MIC, S. aureus ATCC 13709. The class given is cell-based. The note with it: for MIC: Staphylococcus aureus, ATCC13709, S. aureus, read-out: MIC Sa.
Test [2] relates to E. coli ATCC 25922. In words: MIC, E. coli ATCC 25922. The class given is cell-based. The note with it: for MIC: Escherichia coli, ATCC25922, E. coli, read-out: MIC Ec; for EC8 MIC: EC8 not defined.
Where [3] appears, read: S. aureus, Alamar Blue read after overnight incubation at 35° C.
Setting [4] is: E. coli, Alamar Blue read after overnight incubation at 35° C.
The mark [5] stands for this setting: Alamar Blue read after overnight incubation at 35° C.
[6] abbreviates: Table 12, Z is C and connected to R4.

With `CNc1cccc2c1[nH]c1nc(Sc3cnc4ccc[n+]([O-])c4c3)nc(N3CCC4(CC4N)C3)c12` (stereo not drawn) [Compound 1.39], the “MIC Sa” value in test [1] (setting [3]) was at most 0.5 µg/mL. Also, the “MIC Ec” value in test [2] (setting [4]) is 1 µg/mL (≈ 2.06 µM).

For the compound `CNc1cc(F)cc2c1[nH]c1nc(Oc3cnc(C)nc3)nc(N3CC4(CC(N)C4)C3)c12` [Compound 4.153], the “MIC Sa” value in test [1] (setting [3]) is at most 0.5 µg/mL. Besides, the “MIC Ec” value in test [2] (setting [4]) stood at 2 µg/mL (≈ 4.6 µM).

For `CNc1cc(F)c(C#N)c2c1[nH]c1nc(Oc3cnc(C)nc3)nc(N3CC4(CC[C@H]4N)C3)c12` [Compound 10.71], the MIC Sa in test [1] (Table 18, Sa) is at most 0.5 µg/mL. The MIC Ec in test [2] (Table 18, Ec) is at most 0.5 µg/mL.

For the compound `CCc1ncc(Oc2nc(N3CCC(N)C3)c3c(n2)[nH]c2c(NC)cc(F)cc23)cn1` (stereo not drawn) [Compound 4.262], the “MIC Sa” value in test [1] (setting [3]) was at most 0.5 µg/mL. Moreover, in test [2] (setting [4]), the “MIC Ec” value is at most 0.5 µg/mL.

`CNc1cccc2c1[nH]c1nc(Sc3cnc4cccnc4c3)nc(N3CC4C(N)C4C3)c12` (stereo not drawn) [Compound 1.24]: in test [1] (setting [3]), the “MIC Sa” value is at most 0.5 µg/mL. For the same compound, the “MIC Ec” value in test [2] (setting [4]) is 1 µg/mL (≈ 2.2 µM).

For `CNc1cccc2c1[nH]c1nc(Sc3cnc4cccnc4c3)nc(N3CCC4(CC4N)C3)c12` (stereo not drawn) [Compound 1.26], the “MIC Sa” value in test [1] (setting [3]) is at most 0.5 µg/mL. In addition, the “MIC Ec” value in test [2] (setting [4]) was 1 µg/mL (≈ 2.13 µM).

By MIC is commonly meant the lowest concentration that inhibits growth of the organism. Turning to `CNc1cccc2c1[nH]c1nc(Oc3cncc(C#N)c3)cc(N3C[C@@H](NC)C4(CC4)C3)c12` [Compound 3.44], the minimal inhibitory concentration (MIC) came to 8 µg/mL (≈ 18.2 µM) in test [1] (setting [5]) and 16 µg/mL (≈ 36.4 µM) in test [2] (setting [5]).

As to `CNc1cc(F)cc2c1[nH]c1nc(Oc3cnc(C)nc3)nc(N3CC4CC(N)CC4C3)c12` (stereo not drawn) [Compound 4.104], the “MIC Sa” value in test [1] (setting [3]) is at most 0.5 µg/mL. Besides, in test [2] (setting [4]), the “MIC Ec” value is at most 0.5 µg/mL.

As for `COc1nccc2c1[nH]c1nc(Sc3cnc4cccnc4c3)nc(N3CC4C(N)C4C3)c12` (stereo not drawn) [Compound 7.03], the minimal inhibitory concentration (MIC) in test [1] (setting [5]) is 2 µg/mL (≈ 4.38 µM); in test [2] (setting [5]), over 64 µg/mL.

For `COc1cccc2c1[nH]c1nc(Oc3cnc4cccnc4c3)nc(N3CC4C(N)C4C3)c12` (stereo not drawn) [Compound 2.14], the “MIC Sa” value in test [1] (setting [3]) was 1 µg/mL (≈ 2.28 µM). The “MIC Ec” value in test [2] (setting [4]) was over 64 µg/mL.

Consider `CNc1cc(F)c(F)c2c1[nH]c1nc(Oc3cnc([C@H](C)O)nc3)nc(N3CC[C@]4(CC[C@H]4N)C3)c12` [Compound 10.93], for which, in test [1] (Table 18, Sa), the MIC Sa was at most 0.5 µg/mL. In test [2] (Table 18, Ec), this compound showed an MIC Ec of at most 0.5 µg/mL.

In test [1] (Table 18, Sa), `CNc1cc(F)cc2c1[nH]c1nc(Oc3cnc4c(c3)C(=O)N(C)C4O)nc(N3C[C@H]4C[C@@H]3C[C@H]4N)c12` (stereo partly drawn) [Compound 10.108] gave an MIC Sa of at most 0.5 µg/mL. This compound had an MIC Ec in test [2] (Table 18, Ec) of over 16 µg/mL.

The compound `CNc1cc(F)c(F)c2c1[nH]c1nc(Oc3cnc(C)nc3)nc(N3CC4NCC[C@@H]4C3)c12` (stereo partly drawn) [Compound 10.32] showed an MIC Sa in test [1] (Table 18, Sa) of at most 0.5 µg/mL. For the same compound, in test [2] (Table 18, Ec), the MIC Ec was at most 0.5 µg/mL.

For the compound `CNc1cc(F)cc2c1[nH]c1nc(Oc3cncnc3)nc(N3CCCC(C)(N)C3)c12` (stereo not drawn) [Compound 4.024], the “MIC Sa” value in test [1] (setting [3]) was at most 0.5 µg/mL. Besides, in test [2] (setting [4]), the “MIC Ec” value came to 2 µg/mL (≈ 4.73 µM).

In test [1] (Table 11, compounds wherein L = CH2), `CNc1cc(F)cc2c1[nH]c1nc(Cc3cnc(C)nc3)nc(N3CC[C@@]4(C[C@@H]4N)C3)c12` came in with an SA MIC of 1 µg/mL. Further, in test [2] (Table 11, L = CH2), the EC8 MIC is 8 µg/mL.

Take `Cc1ncc(Oc2nc(N3CC4CC3C[C@H]4N)c3c(n2)[nH]c2c(N)cc(F)cc23)cn1` (stereo partly drawn) [Compound 2.16]: the minimum inhibitory concentration (MIC) came to 8 µg/mL (≈ 19 µM) in test [1] (setting [5]) and 16 µg/mL (≈ 38.1 µM) in test [2] (setting [5]).

For the compound `CNc1cccc2c1[nH]c1nc(Oc3ccc[n+]([O-])c3)nc(Oc3cnc(C)nc3)c12` [Compound 8.3], the MIC came to 2 µg/mL (≈ 4.81 µM) in test [1] (setting [5]) and 64 µg/mL (≈ 154 µM) in test [2] (setting [5]).

`CNc1cc(F)cc2c1[nH]c1nc(Oc3cnc(C(C)OC)nc3)nc(N3CC4CC4C3)c12` (stereo not drawn) [Compound 10.117] registered an MIC Sa in test [1] (Table 18, Sa) of at most 0.5 µg/mL. In addition, in test [2] (Table 18, Ec), the MIC Ec was at most 0.5 µg/mL.

As for `CNc1cc(F)c2c3c1[nH]c1nc(Oc4cnc(C)nc4)nc(c13)NC(=N)NC2`, the SA MIC in test [1] (setting [6]) was found to be 4 µg/mL. The compound further registered an EC8 MIC in test [2] (setting [6]) of 8 µg/mL.

With `CNc1cc(F)cc2c1[nH]c1nc(Oc3cnc(C)nc3)nc(N3CC4CC4(CN)C3)c12` (stereo not drawn) [Compound 4.098], in test [1] (setting [3]), the “MIC Sa” value is at most 0.5 µg/mL. Further, the “MIC Ec” value in test [2] (setting [4]) turned out to be 1 µg/mL (≈ 2.3 µM).

As to `N[C@@H]1CCN(c2nc(Sc3cnc4ccc[n+]([O-])c4c3)nc3[nH]c4c(Cl)cccc4c23)C1` [Compound 1.04], in test [1] (setting [3]), the “MIC Sa” value was 32 µg/mL (≈ 69 µM). Moreover, the “MIC Ec” value in test [2] (setting [4]) came out at 64 µg/mL (≈ 138 µM).

In test [1] (Table 18, Sa), `CNc1cc(F)cc2c1[nH]c1nc(SCc3cccnc3)nc(N3C[C@H]4C[C@@H]3C[C@H]4N)c12` [Compound 10.49] yielded an MIC Sa of at most 0.5 µg/mL. Moreover, the MIC Ec in test [2] (Table 18, Ec) was 2 µg/mL (≈ 4.45 µM).

In the case of `CNc1cccc2c1[nH]c1nc(Sc3cnc4ccc[n+]([O-])c4c3)nc(N3CC[C@@H](C)[C@@H](N)C3)c12` [Compound 1.35], the minimum inhibitory concentration (MIC) in test [1] (setting [5]) was at most 0.5 µg/mL; in test [2] (setting [5]), 2 µg/mL (≈ 4.11 µM).

`CNc1cc(F)c(F)c2c1[nH]c1nc(Oc3cncnc3)nc(N3CC4C(N)C4C3)c12` (stereo not drawn) [Compound 6.19]: the “MIC Sa” value in test [1] (setting [3]) was over 16 µg/mL. Also, in test [2] (setting [4]), the “MIC Ec” value was over 16 µg/mL.
